Experimental data: patent US8664160B2, “Fungicidal mixtures” (BASF SE, priority 2005, dated 2014)

Test system: bentgrass
Assay: Seed treatment of bentgrass: ground coverage by emerged plants
Type: in vivo
Details: 20 g a.i./100 kg seed, greenhouse, humid conditions, 7 days after planting, untreated 10.8%
Excerpt: Seeds of bentgrass were seed-treated with the products and concentrations listed. Triticonazol and Pyraclstrobin were used as 200 g/l FS-formulation. Metalaxyl als a 17.7% LS-formulation. Treated sees were planted at the day of treatment and then kept under humid conditions in the greenhouse. 7 days after plating the ground coverage by emerged plants were estimated in percentage.

COCC(=O)N(c1c(C)cccc1C)[C@H](C)C(=O)OC [Metalaxyl-M, metalaxyl-M]
% covered ground: 36.3%
